Experimental data from patent publication US20120071506A1, “METHODS FOR TREATING CNS DISORDERS WITH BICYCLO-SUBSTITUTED 2-IMIDAZOLINE AND 2-IMIDAZOLES” (priority 2006, published 2012).
Where a name gives a salt, the structure may show the parent alone.

Molecular target: T1, mouse TAAR1 (Mus musculus, UniProt Q923Y8)
T1 construct: expressed in transfected cells; host or cells: HEK293 cells (ATCC # CRL-1573), stably transfected with pIRESneo2 expression plasmid; membrane preparation
T1 sequence (Q923Y8 whole entry): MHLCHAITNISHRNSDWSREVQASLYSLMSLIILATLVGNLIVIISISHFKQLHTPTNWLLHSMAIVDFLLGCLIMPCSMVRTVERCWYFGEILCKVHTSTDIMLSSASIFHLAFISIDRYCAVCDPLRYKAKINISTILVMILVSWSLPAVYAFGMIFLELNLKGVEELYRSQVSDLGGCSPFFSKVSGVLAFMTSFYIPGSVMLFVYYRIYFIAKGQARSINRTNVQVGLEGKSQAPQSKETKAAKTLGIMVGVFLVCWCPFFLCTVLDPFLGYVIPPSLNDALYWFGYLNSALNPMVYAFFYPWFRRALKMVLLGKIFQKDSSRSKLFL
Assay: Radioligand binding with [3H]-rac-2-(1,2,3,4-tetrahydro-1-naphthyl)-2-imidazoline on membranes of HEK293 cells stably expressing TAAR1
Details: mouse TAAR1; competition with [3H]-rac-2-(1,2,3,4-tetrahydro-1-naphthyl)-2-imidazoline at 60 nM, 4° C., 30 min
Procedure: For the construction of expression plasmids the coding sequences of human, rat and mouse TAAR 1 were amplified from genomic DNA essentially as described by Lindemann et al.. The Expand High Fidelity PCR System (Roche Diagnostics) was used with 1.5 mM Mg^2+ and purified PCR products were cloned into pCR2.1-TOPO cloning vector (Invitrogen) following the instructions of the manufacturer. PCR products were subcloned into the pIRESneo2 vector (BD Clontech, Palo Alto, Calif.), and expression vectors were sequence verified before introduction in cell lines.
HEK293 cells (ATCC # CRL-1573) were cultured essentially as described Lindemann et al. (2005). For the generation of stably transfected cell lines HEK293 cells were transfected with the pIRESneo2 expression plasmids containing the TAAR coding sequences (described above) with Lipofectamine 2000 (Invitrogen) according to the instructions of the manufacturer, and 24 hrs post transfection the culture medium was supplemented with 1 mg/ml G418 (Sigma, Buchs, Switzerland). After a culture period of about 10 d clones were isolated, expanded and tested for responsiveness to trace amines (all compounds purchased from Sigma) with the cAMP Biotrak Enzyme immunoassay (EIA) System (Amersham) following the non-acetylation EIA procedure provided by the manufacturer.
Cells at confluence were rinsed with ice-cold phosphate buffered saline without Ca^2+ and Mg^2+ containing 10 mM EDTA and pelleted by centrifugation at 1000 rpm for 5 min at 4° C. The pellet was then washed twice with ice-cold phosphate buffered saline and cell pellet was frozen immediately by immersion in liquid nitrogen and stored until use at −80° C. Cell pellet was then suspended in 20 ml HEPES-NaOH (20 mM), pH 7.4 containing 10 mM EDTA, and homogenized with a Polytron (PT 3000, Kinematica) at 10,000 rpm for 10 s. The homogenate was centrifuged at 48,000×g for 30 min at 4° C. and the pellet resuspended in 20 ml HEPES-NaOH (20 mM), pH 7.4 containing 0.1 mM EDTA (buffer A), and homogenized with a Polytron at 10,000 rpm for 10 s. The homogenate was then centrifuged at 48,000×g for 30 min at 4° C. and the pellet resuspended in 20 ml buffer A, and homogenized with a Polytron at 10,000 rpm for 10 s. Protein concentration was determined by the method of Pierce (Rockford, Ill.). The homogenate was then centrifuged at 48,000×g for 10 min at 4° C., resuspended in HEPES-NaOH (20 mM), pH 7.0 including MgCl2 (10 mM) and […] homogenized with a Polytron at 10,000 rpm for 10 s.
Binding assay was performed at 4° C. in a final volume of 1 ml, and with an incubation time of 30 min. The radioligand [^3H]-rac-2-(1,2,3,4-tetrahydro-1-naphthyl)-2-imidazoline was used at a concentration equal to the calculated Kd value of 60 nM to give a bound at around 0.1% of the total added radioligand concentration, and a specific binding which represented approximately 70-80% of the total binding. Non-specific binding was defined as the amount of [^3H]-rac-2-(1,2,3,4-tetrahydro-1-naphthyl)-2-imidazoline bound in the presence of the appropriate unlabelled ligand (10 μM). Competing ligands were tested in a wide range of concentrations (10 pM-30 μM). […] Each experiment was performed in duplicate. All incubations were terminated by rapid filtration through UniFilter-96 plates (Packard Instrument Company) and glass filter GF/C, pre-soaked for at least 2 h in polyethylenimine 0.3%, and using a Filtermate 96 Cell Harvester (Packard Instrument Company). The tubes and filters were then washed 3 times with 1 ml aliquots of cold buffer B. Filters were not dried and soaked in Ultima gold (45 μl/well, Packard Instrument Company) and bound radioactivity was counted by a TopCount Microplate Scintillation Counter (Packard Instrument Company).
With c1ccc2c(c1)OCCC2c1ncc[nH]1 (racemic) [Example 12, rac-2-Chroman-4-yl-1H-imidazole] the Ki was 0.054 µM.
Compound Clc1cccc2c1OCC=C2c1cnc[nH]1 [Example 63, 5-(8-Chloro-2H-chromen-4-yl)-1H-imidazole or tautomer] has a Ki of 0.02 µM.
COc1ccc2c(c1)CCCC2C1=NCCN1 (racemic) [Example 21, rac-2-(6-methoxy-1,2,3,4-tetrahydro-naphthalen-1-yl)-4,5-dihydro-1H-imidazole] showed a Ki of 0.009 µM.
Work on Clc1cccc2c1CCCC2C1=NCCN1 (racemic) [Example 19, rac-2-(5-chloro-1,2,3,4-tetrahydro-naphthalen-1-yl)-4,5-dihydro-1H-imidazole] yielded a Ki of 0.013 µM.
For Brc1cccc2c1CCCC2C1=NCCN1 (racemic) [Example 1, rac-2-(5-Bromo-1,2,3,4-tetrahydro-naphthalen-1-yl)-4,5-dihydro-1H-imidazole], the Ki was 0.009 µM.
Compound c1ccc2c(c1)CCCC2c1c[nH]cn1 (racemic) [Example 56, rac-4-(1,2,3,4-Tetrahydro-naphthalen-1-yl)-1H-imidazole] has a Ki of 0.006 µM.
For COc1cccc2c1CCCC2C1=NCCN1 (racemic) [Example 22, rac-2-(5-methoxy-1,2,3,4-tetrahydro-naphthalen-1-yl)-4,5-dihydro-1H-imidazole], the Ki was 0.025 µM.
Clc1ccc2c(c1)C(c1cnc[nH]1)=CCO2 [Example 64, 5-(6-Chloro-2H-chromen-4-yl)-1H-imidazole or tautomer] gave a Ki of 0.016 µM.
Work on Fc1ccc2c(c1)C(c1cnc[nH]1)CCO2 (racemic) [Example 62, rac-5-(6-Fluoro-chroman-4-yl)-1H-imidazole or tautomer] yielded a Ki of 0.004 µM.
Compound COc1ccc2c(c1)C(C1=NCCN1)CCC2 (racemic) [Example 20, rac-2-(7-Methoxy-1,2,3,4-tetrahydro-naphthalen-1-yl)-4,5-dihydro-1H-imidazole] has a Ki of 0.051 µM.
Cc1ccc2c(c1)OCCC2c1cnc[nH]1 (racemic) [Example 60, rac-5-(7-Methyl-chroman-4-yl)-1H-imidazole or tautomer] gave a Ki of 0.008 µM.
Work on c1ccc2c(c1)NCCC2c1ncc[nH]1 (racemic) [Example 41, rac-4-(1H-Imidazol-2-yl)-1,2,3,4-tetrahydro-quinoline] yielded a Ki of 0.061 µM.
Work on c1ccc2c(c1)OCCC2C1=NCCN1 (racemic) [Example 11, rac-2-Chroman-4-yl-4,5-dihydro-1H-imidazole] yielded a Ki of 0.017 µM.
Work on Cc1cc(C)c2c(c1)C(C1=NCCN1)CCC2 (racemic) [Example 2, rac-2-(5,7-Dimethyl-1,2,3,4-tetrahydro-naphthalen-1-yl)-4,5-dihydro-1H-imidazole] yielded a Ki of 0.011 µM.
With Clc1ccc2c(c1)CCCC2C1=NCCN1 (racemic) [Example 18, rac-2-(6-chloro-1,2,3,4-tetrahydro-naphthalen-1-yl)-4,5-dihydro-1H-imidazole] the Ki was 0.058 µM.
Work on C1=C(c2cnc[nH]2)c2ccccc2CC1 [Example 55] yielded a Ki of 0.011 µM.
With Fc1cccc2c1C(c1cnc[nH]1)CCO2 (racemic) [Example 67, rac-5-(5-Fluoro-chroman-4-yl)-1H-imidazole or tautomer] the Ki was 0.032 µM.
Work on c1ccc2c(c1)OCCC2c1cnc[nH]1 (racemic) [Example 69, rac-5-Chroman-4-yl-1H-imidazole hydrochloride or tautomer] yielded a Ki of 0.025 µM.
Fc1ccc2c(c1)OCCC2c1cnc[nH]1 (racemic) [Example 65, rac-5-(7-Fluoro-chroman-4-yl)-1H-imidazole or tautomer] gave a Ki of 0.004 µM.
Work on Cc1cccc2c1C(c1cnc[nH]1)CCO2 (racemic) [Example 66, rac-5-(5-Methyl-chroman-4-yl)-1H-imidazole or tautomer] yielded a Ki of 0.037 µM.
Compound Fc1cc(Cl)cc2c1CCCC2C1=NCCN1 (racemic) [Example 3, rac-2-(7-Chloro-5-fluoro-1,2,3,4-tetrahydro-naphthalen-1-yl)-4,5-dihydro-1H-imidazole] has a Ki of 0.054 µM.
Clc1cc(Cl)c2c(c1)C(c1ncc[nH]1)CCO2 (racemic) [Example 36, rac-2-(6,8-Dichloro-chroman-4-yl)-1H-imidazole] gave a Ki of 0.053 µM.
For Cc1cc(C)c2c(c1)C(c1ncc[nH]1)CCC2 (racemic) [Example 10, rac-2-(5,7-Dimethyl-1,2,3,4-tetrahydro-naphthalen-1-yl)-1H-imidazole], the Ki was 0.013 µM.

Same assay, conditions: radioligand used at a concentration equal to its calculated Kd; species of TAAR1 not given
Compound c1ccc2c(c1)CCCC2C1=NCCN1 (racemic) [[^3H]-rac-2-(1,2,3,4-tetrahydro-1-naphthyl)-2-imidazoline, reference compound] has a Kd of 60 nM.

System: not given
Assay: not given
Details: not given
Compound Brc1ccc2c(c1)C(C1=NCCN1)CCC2 (racemic) has a melting point of 156 to 158 °C.
Compound Cc1cc(C)c2c(c1)C(c1ncc[nH]1)CCC2 (racemic) [Example 10, rac-2-(5,7-Dimethyl-1,2,3,4-tetrahydro-naphthalen-1-yl)-1H-imidazole] has a melting point of 161 to 163 °C.
